3 compounds from article PMC5814047, “Peptidic inhibitors of insulin-degrading enzyme with potential for dermatological applications discovered via phage display” (PLoS ONE, 2018) can be followed below.

Broadly, the Ki is the dissociation constant of the complex between target and ligand, obtained from inhibition or displacement.

Where “and” joins values, the source holds several entries; their conditions need not be identical. Equal entries are not always repeated. Bridge positions count the residues as written; N and C are the ends. Ends that are not written are not given here. Peptide text beside a SMILES is read from it.

For assay [1], the target named is T1, IDE (Homo sapiens, UniProt P14735).
T1 construct: made in house; host or cells: bacteria
T1 sequence (P14735 1-1019): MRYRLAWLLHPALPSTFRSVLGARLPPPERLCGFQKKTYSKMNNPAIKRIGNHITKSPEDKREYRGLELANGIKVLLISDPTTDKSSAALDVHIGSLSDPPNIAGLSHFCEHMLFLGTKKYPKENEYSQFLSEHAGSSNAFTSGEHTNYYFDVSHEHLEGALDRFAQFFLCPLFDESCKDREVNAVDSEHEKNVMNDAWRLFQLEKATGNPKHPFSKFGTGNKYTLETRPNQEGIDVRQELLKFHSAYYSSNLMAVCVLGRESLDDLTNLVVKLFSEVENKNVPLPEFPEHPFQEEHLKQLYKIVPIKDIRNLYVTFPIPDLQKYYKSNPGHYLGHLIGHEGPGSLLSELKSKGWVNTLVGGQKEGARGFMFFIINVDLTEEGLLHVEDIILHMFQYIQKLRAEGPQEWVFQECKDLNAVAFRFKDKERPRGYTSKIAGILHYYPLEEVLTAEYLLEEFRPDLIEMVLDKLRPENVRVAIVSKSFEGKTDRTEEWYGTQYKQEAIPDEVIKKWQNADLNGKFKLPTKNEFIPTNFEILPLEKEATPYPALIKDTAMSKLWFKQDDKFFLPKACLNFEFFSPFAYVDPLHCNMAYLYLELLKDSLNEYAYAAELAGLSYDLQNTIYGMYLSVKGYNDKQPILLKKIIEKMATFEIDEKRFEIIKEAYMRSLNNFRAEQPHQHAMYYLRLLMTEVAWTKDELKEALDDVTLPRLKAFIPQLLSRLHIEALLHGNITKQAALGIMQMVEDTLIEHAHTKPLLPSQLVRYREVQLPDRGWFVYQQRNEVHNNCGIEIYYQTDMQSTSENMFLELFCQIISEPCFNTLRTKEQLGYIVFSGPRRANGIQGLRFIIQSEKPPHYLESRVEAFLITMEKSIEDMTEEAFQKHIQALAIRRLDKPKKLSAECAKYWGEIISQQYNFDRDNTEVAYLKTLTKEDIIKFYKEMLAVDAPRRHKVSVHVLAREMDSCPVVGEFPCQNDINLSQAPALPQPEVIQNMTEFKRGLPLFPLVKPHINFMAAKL
The assay is described as follows: Vulnerability of peptides to degradation by IDE: 0 vs 4 h pre-incubation, then FRET1 assay. To be noted: for remaining activity at 0.12207 µM / remaining activity at 0.488281 µM / remaining activity at 1.95312 µM / remaining activity at 7.8125 µM / remaining activity at 31.25 µM / remaining activity at 125 µM / remaining activity at 500 µM: 4 h, relative to DMSO-only controls, read-out: Percent Activity (normalized initial velocity of FRET1 hydrolysis); for remaining activity at 0.12207 µM: Cmpd 0.12207 uM; for remaining activity at 0.488281 µM: Cmpd 0.488281 uM; for remaining activity at 1.95312 µM: Cmpd 1.95312 uM; for remaining activity at 7.8125 µM: Cmpd 7.8125 uM; for remaining activity at 31.25 µM: Cmpd 31.25 uM; for remaining activity at 125 µM: Cmpd 125 uM; for remaining activity at 500 µM: Cmpd 500 uM; for IC50: FRET1 assay. The assay is classed as biochemical. An outline of the steps:
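Recombinant human IDE (1 nM, bacterially purified) degrading FRET1 substrate Mca-peptide-Dnp (5 μM) in PBS with 0.05% BSA; peptides pre-incubated 0 or 4 h before assay. Fluorescence monitored as degradation read-out.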

For assay [2], the target named is T1, IDE. The assay is described as follows: biochemical. To be noted: for IC50 <500 uM?: initial test at 500 uM. An outline of the steps: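 Recombinant human IDE (1 nM, bacterially expressed) degraded FRET1 substrate (5 μM), fluoresceinated biotinylated amyloid β (500 nM) or human insulin (50 nM) in PBS with 0.05% BSA. Peptides tested included N-acetylated and C-amidated variants.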

Where [3] appears, read: 4-hr incubation, individual runs.
Where [4] appears, read: dose-response, individual runs, read-out: Percent Activity (normalized source data).
[5] abbreviates: dose-response, 125 uM, individual runs, read-out: Percent Activity (normalized source data).
Where [6] appears, read: initial test, percent of initial velocity relative to DMSO-only controls, N 4, read-out: Percent activity at 500 uM, Mean.
The mark [7] stands for this setting: judged as IC50 <100 uM?, N 4, read-out: Percent activity at 500 uM, Mean.

For the compound `CC(C)C[C@H](NC(=O)[C@H](CO)NC(=O)[C@@H](N)CCC(N)=O)C(=O)N1CCC[C@H]1C(=O)N[C@@H](Cc1c[nH]c2ccccc12)C(=O)N[C@H]1CSSC[C@@H](C(=O)N[C@H](C(=O)N[C@H](C(N)=O)[C@@H](C)O)C(C)C)NC(=O)[C@H](Cc2c[nH]cn2)NC(=O)[C@@H]2CCCN2C(=O)[C@H](Cc2ccc(O)cc2)NC1=O` [P12-3A] (H-QSLPWCYPHCVT-NH2; disulfide 6-10 (inferred)), in assay [1] (setting [3]), the remaining activity at 0.12207 µM is 101%, the remaining activity at 0.488281 µM was 96.2%, the remaining activity at 1.95312 µM came to 95.5% and the remaining activity at 7.8125 µM turned out to be 93.1%. For the same compound, in assay [1] (setting [3]), the remaining activity at 31.25 µM came out at 87.4%, the remaining activity at 125 µM stood at 7.45% and the remaining activity at 500 µM was determined as 0.698%. In addition, the remaining activity at 0.0005 µM in assay [2] (FRET1, P12-3A 0.0005 uM, Replicates 4-6, read-out: Percent Activity (normalized source data)) was 109%. Moreover, the remaining activity at 0.0016 µM in assay [2] (FRET1, P12-3A 0.0016 uM, Replicates 4-6, read-out: Percent Activity (normalized source data)) is 115%. Besides, the remaining activity at 0.005 µM in assay [2] (FRET1, P12-3A 0.005 uM, Replicates 4-6, read-out: Percent Activity (normalized source data)) came to 119%. Besides, the remaining activity at 0.05 µM in assay [2] (FRET1, P12-3A 0.050 uM, Replicates 4-6, read-out: Percent Activity (normalized source data)) worked out at 134%. In addition, in assay [2] (FRET1, P12-3A 0.12 uM, Replicates 1-3, read-out: Percent Activity (normalized source data)), the remaining activity at 0.12 µM came out at 81.6%. In assay [2] (FRET1, P12-3A 0.24 uM, Replicates 1-3, read-out: Percent Activity (normalized source data)), the remaining activity at 0.24 µM worked out at 82.7%. Further, the remaining activity at 0.49 µM in assay [2] (FRET1, P12-3A 0.49 uM, Replicates 1-3, read-out: Percent Activity (normalized source data)) turned out to be 73.4%. The remaining activity at 0.98 µM in assay [2] (FRET1, P12-3A 0.98 uM, Replicates 1-3, read-out: Percent Activity (normalized source data)) came out at 62.8%. For the same compound, the remaining activity at 3.91 µM in assay [2] (FRET1, P12-3A 3.91 uM, Replicates 1-3, read-out: Percent Activity (normalized source data)) was found to be 45.2%. For the same compound, in assay [2] (FRET1, P12-3A 7.81 uM, Replicates 1-3, read-out: Percent Activity (normalized source data)), the remaining activity at 7.81 µM stood at 33%. In assay [2] (FRET1, P12-3A 15.6 uM, Replicates 1-3, read-out: Percent Activity (normalized source data)), the remaining activity at 15.6 µM turned out to be 38.9%. In assay [2] (FRET1, P12-3A 16 uM, Replicates 4-6, read-out: Percent Activity (normalized source data)), the remaining activity at 16 µM was 45.2%. Further, the remaining activity at 31.2 µM in assay [2] (FRET1, P12-3A 31.2 uM, Replicates 1-3, read-out: Percent Activity (normalized source data)) came to 30.6%. Moreover, the remaining activity at 50 µM in assay [2] (FRET1, P12-3A 50 uM, Replicates 4-6, read-out: Percent Activity (normalized source data)) stood at 31.6%. Further, the remaining activity at 62.5 µM in assay [2] (FRET1, P12-3A 62.5 uM, Replicates 1-3, read-out: Percent Activity (normalized source data)) was determined as 23.7%. In addition, the remaining activity at 125 µM in assay [2] (FRET1, P12-3A 125 uM, Replicates 1-3, read-out: Percent Activity (normalized source data)) came out at 20.1%. Moreover, in assay [2] (FRET1, P12-3A 158 uM, Replicates 4-6, read-out: Percent Activity (normalized source data)), the remaining activity at 158 µM was determined as 23.8%. Besides, in assay [2] (FRET1, P12-3A 250 uM, Replicates 1-3, read-out: Percent Activity (normalized source data)), the remaining activity at 250 µM amounted to 10.4%. Also, in assay [2] (setting [4]), the remaining activity at 0.12207 µM was determined as 87.1%, the remaining activity at 0.488281 µM is 82.8%, the remaining activity at 1.95312 µM stood at 78.7% and the remaining activity at 7.8125 µM was found to be 74%. The remaining activity at 31.25 µM in assay [2] (setting [4]) came to 40.2%. Further, the remaining activity at 125 µM in assay [2] (setting [5]) came to 9.83%. The “IC50 <500 uM?” value in assay [2] is on record as “YES”. For the same compound, in assay [2] (setting [6]), the remaining activity at 500 µM came out at 3.6%. Further, the remaining activity at 500 µM in assay [2] (setting [7]) turned out to be 17.1%.
As for `CC(C)C[C@H](NC(=O)[C@H](CO)NC(=O)[C@@H](N)CCC(N)=O)C(=O)N1CCC[C@H]1C(=O)N[C@@H](Cc1c[nH]c2ccccc12)C(=O)N[C@H]1CSSC[C@@H](C(=O)N[C@H](C(=O)N[C@H](C(=O)O)[C@@H](C)O)C(C)C)NC(=O)[C@H](Cc2c[nH]cn2)NC(=O)[C@@H]2CCCN2C(=O)[C@H](Cc2ccc(O)cc2)NC1=O` [P12-3] (H-QSLPWCYPHCVT-OH; disulfide 6-10 (inferred)), in assay [1] (setting [3]), the remaining activity at 0.12207 µM was found to be 106%, the remaining activity at 0.488281 µM was found to be 99.5%, the remaining activity at 1.95312 µM came to 95.9% and the remaining activity at 7.8125 µM was determined as 104%. In assay [1] (setting [3]), the remaining activity at 31.25 µM was 70.9%, the remaining activity at 125 µM was 8.98% and the remaining activity at 500 µM stood at 1.55%. In addition, in assay [2] (setting [4]), the remaining activity at 0.12207 µM was determined as 91.1%, the remaining activity at 0.488281 µM was 84.5%, the remaining activity at 1.95312 µM came to 84.4% and the remaining activity at 7.8125 µM was 65.6%. In addition, the remaining activity at 31.25 µM in assay [2] (setting [4]) was 34.6%. The remaining activity at 125 µM in assay [2] (setting [5]) is 11%. Further, the “IC50 <500 uM?” value in assay [2] was “YES”. Also, the remaining activity at 500 µM in assay [2] (setting [6]) is 2%. For the same compound, the remaining activity at 500 µM in assay [2] (setting [7]) came to 13.9%.
QSLPWCYP-NH2 [P12-3B]: the inhibitory constant (Ki) in assay [1] (4-hr incubation, Cheng-Prusoff from IC50, FRET1 KM 10 uM, substrate 5 uM) amounted to 30.6 µM; in assay [2] (Cheng-Prusoff, KM 10 uM, substrate concentration 5 uM, read-out: Ki values, Mean) it was 39.4 µM; in assay [2] (substrate FRET1 5 μM, Ki from IC50 with the Cheng-Prusoff equation, read-out: Ki FRET1), 39 ± 20 µM. Further, the remaining activity at 0.12207 µM in assay [1] (setting [3]) came to 101%. Besides, the remaining activity at 0.488281 µM in assay [1] (setting [3]) turned out to be 96.9%. For the same compound, in assay [1] (setting [3]), the remaining activity at 1.95312 µM came to 101%. Also, in assay [1] (setting [3]), the remaining activity at 7.8125 µM is 97%. In assay [1] (setting [3]), the remaining activity at 31.25 µM came to 80.9%. Besides, the remaining activity at 125 µM in assay [1] (setting [3]) worked out at 60.2%. Moreover, the remaining activity at 500 µM in assay [1] (setting [3]) stood at 11.2%; in assay [2] (initial test, percent of initial velocity relative to DMSO-only controls, individual replicates, read-out: Percent activity at 500 uM, Replicate 1-4) it was 13.7%; in assay [2] (judged as IC50 <100 uM?, individual replicates, read-out: Percent activity at 500 uM, Replicate 1-4), 27.1%. In addition, the IC50 was 119 µM in assay [1] (0-hr incubation (immediately after combining enzyme and peptide), individual runs, read-out: IC50s); 59.2 µM in assay [1] (0-hr incubation, mean of runs, read-out: IC50s, Mean); 45.1 µM and 46.8 µM in assay [1] (4-hr incubation, individual replicates, read-out: IC50s); 45.9 µM in assay [1] (4-hr incubation, mean of 2 replicates, read-out: IC50s, Mean); 25.6 µM and 32.5 µM in assay [2] (dose-response, FRET1, individual runs, read-out: IC50s, Run 1-6); 59.2 µM in assay [2] (dose-response, FRET1, read-out: IC50s, Mean). In addition, the “IC50 <500 uM?” value in assay [2] is on record as “YES”.
